Entries after “also recorded” stand apart in the source; their conditions may differ.
Molecular target: T1, human TLR8 (Homo sapiens, UniProt Q9NR97)
T1 construct: HEK293 cells stably co-transfected with the appropriate hTLR, MD2, and secreted alkaline phosphatase (sAP); expressed in transfected cells; host or cells: HEK293 (HEK-Blue™)
T1 sequence (Q9NR97 27-1041): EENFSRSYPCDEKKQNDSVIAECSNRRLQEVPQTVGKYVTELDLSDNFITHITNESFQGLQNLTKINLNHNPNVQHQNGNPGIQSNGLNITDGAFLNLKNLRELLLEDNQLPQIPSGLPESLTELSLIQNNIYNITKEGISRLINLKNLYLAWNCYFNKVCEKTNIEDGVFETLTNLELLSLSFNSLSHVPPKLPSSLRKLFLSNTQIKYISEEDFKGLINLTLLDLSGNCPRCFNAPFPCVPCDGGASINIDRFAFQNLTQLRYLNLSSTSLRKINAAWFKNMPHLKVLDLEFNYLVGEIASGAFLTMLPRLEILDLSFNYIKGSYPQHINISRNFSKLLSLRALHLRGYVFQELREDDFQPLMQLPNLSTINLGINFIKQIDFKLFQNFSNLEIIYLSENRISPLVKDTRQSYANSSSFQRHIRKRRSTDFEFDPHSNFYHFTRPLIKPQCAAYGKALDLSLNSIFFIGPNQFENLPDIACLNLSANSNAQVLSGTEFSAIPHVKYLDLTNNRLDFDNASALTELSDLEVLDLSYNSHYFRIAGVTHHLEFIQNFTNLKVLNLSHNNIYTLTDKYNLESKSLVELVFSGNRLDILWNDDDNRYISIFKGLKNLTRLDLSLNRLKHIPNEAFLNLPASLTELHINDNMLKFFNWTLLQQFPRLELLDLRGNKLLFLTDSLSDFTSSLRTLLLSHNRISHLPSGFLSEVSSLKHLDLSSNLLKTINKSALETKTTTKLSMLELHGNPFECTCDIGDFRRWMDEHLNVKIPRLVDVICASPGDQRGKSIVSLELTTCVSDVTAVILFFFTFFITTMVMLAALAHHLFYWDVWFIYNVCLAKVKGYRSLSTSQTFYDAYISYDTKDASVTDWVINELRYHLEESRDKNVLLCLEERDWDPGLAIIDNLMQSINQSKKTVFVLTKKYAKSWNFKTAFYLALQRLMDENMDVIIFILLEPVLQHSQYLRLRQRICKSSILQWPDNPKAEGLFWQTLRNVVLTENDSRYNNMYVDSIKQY
Test: human TLR8-specific HEK-Blue reporter gene assay (NF-κB induction)
Assay type: cell-based
Conditions: TLR8 primary screen
Description: (§1) Human TLR2/-3/-4/-5/-7/-8/-9 Reporter Gene Assays (NF-κB Induction):
(§2) The induction of NF-κB was quantified using human TLR2/-3/-4/-5/-7/-8/-9-specific HEK-Blue™ reporter gene assays as previously described. HEK293 cells stably co-transfected with the appropriate hTLR, MD2, and secreted alkaline phosphatase (sAP), were maintained in HEK-Blue™ Selection medium containing zeocin and normocin. Stable expression of secreted alkaline phosphatase (sAP) under control of NF-κB/AP-1 promoters is inducible by appropriate TLR agonists, and extracellular sAP in the supernatant is proportional to NF-κB induction.

Row | TLR8 agonistic activity | Compound
1 | do not display TLR8 agonism | Nc1nc2ccccc2c2cc(CCCO)oc12 [Compound A8r, 3-(4-aminofuro[2,3-c]quinolin-2-yl)propan-1-ol]
2 | do not display TLR8 agonism | CC(C)CC(O)c1cc2c(o1)c(N)nc1ccccc12 (centres unmarked) [Compound A8u, 1-(4-aminofuro[2,3-c]quinolin-2-yl)-3-methylbutan-1-ol]
3 | lower agonistic potencies | CCCCCCc1cc2c(o1)c(N)nc1ccccc12 [Compound A8f, 2-hexylfuro[2,3-c]quinolin-4-amine]
4 | lower agonistic potencies | CCCc1cc2c(o1)c(N)nc1ccccc12 [Compound A8c, 2-propylfuro[2,3-c]quinolin-4-amine]
5 | lower agonistic potencies | CCCCCc1cc2c(o1)c(N)nc1ccccc12 [Compound A8e, 2-pentylfuro[2,3-c]quinolin-4-amine]
6 | inactive | Nc1nc2ccccc2c2cc(-c3ccccc3)oc12 [Compound A8n, 2-phenylfuro[2,3-c]quinolin-4-amine]
7 | lower agonistic potencies | Cc1cc2c(o1)c(N)nc1ccccc12 [Compound A8b, 2-methylfuro[2,3-c]quinolin-4-amine]
8 | inactive | Nc1nc2ccccc2c2ccoc12 [Compound A8a, furo[2,3-c]quinolin-4-amine]
9 | inactive | Nc1nc2ccccc2c2cc(Cc3ccccc3)oc12 [Compound A8o, 2-benzylfuro[2,3-c]quinolin-4-amine]
10 | do not display TLR8 agonism | CC(O)Cc1cc2c(o1)c(N)nc1ccccc12 (centres unmarked) [Compound A8v, 1-(4-aminofuro[2,3-c]quinolin-2-yl)propan-2-ol]
11 | inactive | CCCCc1cc2c(nc(N)c3ccccc32)o1 [Compound A18, 2-butylfuro[2,3-c]isoquinolin-5-amine]

Row | Compound | TLR8 agonistic activity
12 | CCCCc1cc2ccnc(N)c2o1 [Compound A28b, 2-butylfuro[2,3-c]pyridin-7-amine] | retained TLR8-selective agonistic activities; also recorded: feeble activity
13 | CCCc1cc2ccnc(N)c2o1 [Compound A28a, 2-propylfuro[2,3-c]pyridin-7-amine] | retained TLR8-selective agonistic activities; also recorded: feeble activity

Same assay, conditions: cell-based TLR8-specific NF-κB transactivation assay; read-out: TLR8 agonistic potency EC50

Row | EC50 | Compound
14 | 46.2 µM | CCCCc1cc2ccnc(N)c2o1 [Compound A28b, 2-butylfuro[2,3-c]pyridin-7-amine]
15 | 24.4 µM | CCCc1cc2ccnc(N)c2o1 [Compound A28a, 2-propylfuro[2,3-c]pyridin-7-amine]

Same assay, conditions: human TLR8-specific reporter gene assays, Table 1

Row | Compound | Agonistic Activity EC50 (μM) TLR8
16 | CCCCc1cc(N)nc2ccccc12 [Compound 27a, 4-Butylquinolin-2-amine] | Inactive
17 | CCCCCc1c(N)nc2ccccc2c1CC [Compound 21b, 4-Ethyl-3-pentylquinolin-2-amine] | Inactive
18 | CCCCCc1cc(N)nc2ccccc12 [Compound 27b, 4-Pentylquinolin-2-amine] | Inactive
19 | CCCCCc1c(N)nc2ccccc2c1CCC(C)C [Compound 21c, 4-Isopentyl-3-pentylquinolin-2-amine] | Inactive

Next, values leading:

Row | Agonistic Activity EC50 (μM) TLR8 | Compound
20 | Inactive^a | CCCCCc1c(N)nc2ccccc2c1C [Compound 21a, 4-Methyl-3-pentylquinolin-2-amine]
21 | Inactive | CCCCOc1cc(N)nc2ccccc12 [Compound 24a, 4-(Butyloxy)quinolin-2-amine]
22 | Inactive | CCCCCOc1cc(N)nc2ccccc12 [Compound 24b, 4-(Pentyloxy)quinolin-2-amine]
23 | Inactive | CCCCCCc1cc2ccccc2nc1N [Compound 14c, 3-Hexylquinolin-2-amine]

Same assay, conditions: human TLR8-specific reporter gene assays, Table 1; read-out: Agonistic Activity EC50 (μM) TLR8

Row | EC50 | Compound
24 | 50 µM | CCCCCCOc1cc2ccccc2nc1N [Compound 6e, 3-(Hexyloxy)quinolin-2-amine]
25 | 2.18 µM | CCCCOc1cc2ccccc2nc1N [Compound 6, 3-(Butyloxy)quinolin-2-amine]
26 | 50 µM | CC(C)COc1cc2ccccc2nc1N [Compound 6g, 3-(Isobutyloxy)quinolin-2-amine]
27 | 2.67 µM | CCC/C=C/c1cc2ccccc2nc1N [Compound 14d, (E)-3-(Pent-1-en-1-yl)quinolin-2-amine]
28 | 4.28 µM | CCCCNc1cc2ccccc2nc1N [Compound 9, N^3-Butylquinoline-2,3-diamine]
29 | 7 µM | CCCCCOc1cc2ccccc2nc1N [Compound 6d, 3-(Pentyloxy)quinolin-2-amine]
30 | 13 µM | CCCC#Cc1cc2ccccc2nc1N [Compound 14f, 3-(Pent-1-yn-1-yl)quinolin-2-amine]
31 | 50 µM | CC(C)CCOc1cc2ccccc2nc1N [Compound 6h, 3-(Isopentyloxy)quinolin-2-amine]

Test system: human natural killer cells
Test: CD69 upregulation by flow cytometry in whole human blood
Assay type: cell-based
Conditions: 16.5 h, FIG. 8
Description: Flow-Cytometric Immunostimulation Experiments:
CD69 upregulation was determined by flow cytometry. Briefly, heparin-anticoagulated whole blood samples were obtained by venipuncture from healthy human volunteers with informed consent and as per guidelines approved by the University of Kansas Human Subjects Experimentation Committee. […] Negative (endotoxin free water) controls were included in each experiment. Following incubation, 200 μL aliquots of anticoagulated whole blood were stained with 20 µL of fluorochrome-conjugated antibodies at 37° C. in the dark for 30 min. For triple color flow cytometry experiments, CD3-PE, CD56-APC, CD69-PE-Cy7 were used to analyze CD69 activation of each of the main peripheral blood lymphocyte populations: natural killer lymphocytes (NK cells: CD3^−CD56^+), cytokine-induced killer phenotype (CIK cells: CD3^+CD56^+), nominal B lymphocytes (CD3^−CD56^−), and nominal T lymphocytes (CD3^+CD56^−). Following staining, erythrocytes were lysed and leukocytes fixed in one step by mixing 200 μL of the samples in 4 mL pre-warmed Whole Blood Lyse/Fix Buffer (Becton-Dickinson Biosciences, San Jose, Calif.). After washing the cells twice at 200 g for 8 minutes in saline, the cells were transferred to a 96-well plate. […]

Row | Compound | CD69 expression on natural killer lymphocytes
32 | CCCCc1cc2c(o1)c(N)nc1ccccc12 [Compound A8d, 2-butylfuro[2,3-c]quinolin-4-amine] | absence of natural killer lymphocyte activation; also recorded: absence of CD69 upregulation

Test system: whole human blood
Test: proinflammatory cytokine induction in human blood
Assay type: cell-based
Conditions: FIGS. 6A-6D, Compound 2 as reference

Row | Compound | induction of TNF-α, IL-1β, IL-6 and IL-8
33 | CCCCc1cc2c(o1)c(N)nc1ccccc12 [Compound A8d, 2-butylfuro[2,3-c]quinolin-4-amine] | induce TNF-α, IL-β, IL-6 and IL-8 in a dose-dependent manner, albeit with a lower potency than Compound 2

Test system: human TLR2, TLR3, TLR4, TLR5, TLR7, TLR9, TLR10, Nod1 and Nod2
Test: counter-screens in reporter cell lines specific for other human TLRs and Nod1/2
Assay type: cell-based
Conditions: not given

Row | Compound | activity in counter-screens / specificity for human TLR8
34 | CCCCOc1cc2ccccc2nc1N [Compound 6, 3-(Butyloxy)quinolin-2-amine] | specific for human TLR8
35 | CCCCSc1cc2ccccc2nc1N [Compound 12, 3-(Butylthio)quinolin-2-amine] | specific for human TLR8
36 | CCCCNc1cc2ccccc2nc1N [Compound 9, N^3-Butylquinoline-2,3-diamine] | specific for human TLR8

Test system: TLR7/TLR8
Test: not given
Conditions: background statement; cited from earlier work

Row | Compound | TLR7/TLR8 agonism profile described
37 | CCCN(CCC)C(=O)C1=Cc2ccc(-c3ccc(C(=O)N4CCCC4)cc3)cc2N=C(N)C1 [VTX-2337] | mixed TLR7/TLR8-agonism

Test system: human peripheral blood mononuclear cells
Test: cytokine/chemokine induction in human PBMCs (multiplexed bead array immunoassays)
Assay type: cell-based
Conditions: 41-analyte multiplexed assay, human PBMCs, FIG. 9
Description: Immunoassays for Cytokines:
Fresh human peripheral blood mononuclear cells (hPBMC) were isolated from human blood obtained by venipuncture with informed consent and as per institutional guidelines on Ficoll-Hypaque gradients. Aliquots of PBMCs (10^5 cells in 100 μL/well) were stimulated for 12 h with graded concentrations of test compounds. Supernatants were isolated by centrifugation, and were assayed in triplicates using analyte-specific multiplexed cytokine/chemokine bead array assays. PBMC supernatants were also analyzed for 41 chemokines and cytokines (EGF, Eotaxin, FGF-2, Fit-3 ligand, Fractalkine, G-CSF, GM-CSF, GRO, IFN-α2, IFN-γ, IL-10, IL-12 (p40), IL-12 (p70), IL-13, IL-15, IL-17, IL-1ra, IL-1α, IL-1β, IL-2, IL-3, IL-4, IL-5, IL-6, IL-7, IL-8, IL-9, IP-10, MCP-1, MCP-3, MDC (CCL22), MIP-1α, MIP-1β, PDGF-AA, PDGF-AB/BB, RANTES, TGFα, TNF-α, TNF-β, VEGF, sCD40L) using a magnetic bead-based multiplexed assay kit (Milliplex MAP Human Cytokine/Chemokine kit). Data were acquired and processed on a MAGPIX instrument (EMD Millipore, Billerica, Mass.) with an intra-assay coefficients of variation ranging from 4-8% for the 41 analytes.

Row | Compound | induction of G-CSF, GRO, MIP-1α and MIP-1β
38 | CCCCc1nc2c(N)nc3ccccc3c2n1Cc1ccccc1 [1-benzyl-2-butyl-1H-imidazo[4,5-c]quinolin-4-amine] | did not

Same assay, conditions: human PBMCs as well as whole human blood, FIGS. 3A-3T

Row | Compound | cytokine/chemokine induction profile
39 | CCCCCc1cc2ccccc2nc1N [Compound 14b, 3-Pentylquinolin-2-amine] | induction of a specific set of chemokines and proinflammatory cytokines, including interleukins 12 and 18

Test system: human TLR2/3/4/5/7/8/9 and NOD1/2
Test: primary screens: panel of reporter gene assays for TLR and NOD modulatory activities
Conditions: human TLR2/3/4/5/7/8/9 and NOD1/2 reporter gene assays
Description: as §1, §2

Row | Compound | activity in primary screens (reporter gene panel)
40 | NCCc1cc2c(o1)c(N)nc1ccccc12 [Compound A8y, 2-(2-aminoethyl)furo[2,3-c]quinolin-4-amine] | none of these compounds were active in any primary screens
41 | CCOCCc1cc2c(o1)c(N)nc1ccccc12 [Compound A8w, 2-(2-ethoxyethyl)furo[2,3-c]quinolin-4-amine] | none of these compounds were active in any primary screens
42 | NCc1cc2c(o1)c(N)nc1ccccc12 [Compound A8x, 2-(aminomethyl)furo[2,3-c]quinolin-4-amine] | none of these compounds were active in any primary screens

Test system: human ex vivo blood
Test: not given
Conditions: transcriptomal profiling

Row | Compound | IFN-α transcription | induction of proinflammatory cytokine transcripts
43 | CCCCc1cc2c(o1)c(N)nc1ccccc12 [Compound A8d, 2-butylfuro[2,3-c]quinolin-4-amine] | induced only by Compound 2 | strong induction of proinflammatory cytokine transcripts (including IL-12 and IL-18)

Reference: patent publication US10654807B2, “Toll-like receptor 8 agonists” (The University Of Kansas, priority 2013, dated 2020)
